Experiments:
Format in all cases: in vivo
Set-up in all cases: key: 0 is no effect; 10 is complete control
[1] = system: bedstraw (Galium aparine); assay: Test B pre-/postemergence; settings: for Bedstraw plant response rating: Preemergence
In short: (§1)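 Scored visually 0 (none) to 10 (complete control) against untreated plants after twelve to sixteen greenhouse days. Test chemicals, formulated in surfactant-containing non-phytotoxic solvent, applied to soil after planting and, separately, onto 1- to 4-leaf (2–18 cm) plants.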

[2] = system: blackgrass (Alopecurus myosuroides); assay: Test B pre-/postemergence; settings: for Blackgrass plant response rating: Preemergence
In short: as §1

[3] = system: broadleaf signalgrass (Brachiaria decumbens); assay: Test B pre-/postemergence; settings: for B. signalgrass plant response rating: Preemergence
In short: as §1

[4] = system: cocklebur (Xanthium strumarium); assay: Test B pre-/postemergence; settings: for Cocklebur plant response rating: Preemergence
In short: as §1

corn (Zea mays) = assay: Test B pre-/postemergence; settings: for Corn plant response rating: Preemergence
In short: as §1

[5] = system: crabgrass (Digitaria sanguinalis); assay: Test B pre-/postemergence; settings: for Crabgrass plant response rating: Preemergence
In short: as §1

[6] = system: giant foxtail (Setaria faberii); assay: Test B pre-/postemergence
In short: as §1

[7] = system: momingglory (Ipomoea hederacea); assay: Test B pre-/postemergence
In short: as §1

[8] = system: pigweed (Amaranthus retroflexus); assay: Test B pre-/postemergence
In short: as §1

[9] = system: purple nutsedge (Cyperus rotundus); assay: Test B pre-/postemergence
In short: as §1

rape (Brassica napus) = assay: Test B pre-/postemergence
In short: as §1

soybean (Glycine max) = assay: Test B pre-/postemergence
In short: as §1

[10] = system: sugar beet (Beta vulgaris); assay: Test B pre-/postemergence
In short: as §1

[11] = system: velvetleaf (Abutilon theophrasti); assay: Test B pre-/postemergence
In short: as §1

[12] = system: wheat (Triticum aestivum); assay: Test B pre-/postemergence
In short: as §1

wild oat (Avena fatua) = assay: Test B pre-/postemergence
In short: as §1

[13] = system: bamyardgrass (Echinochloa crus-galli); assay: Test B flood test
In short: (§2)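 Flood test on plants grown to the 2-leaf stage; treated plants kept in greenhouse twelve to sixteen days, then visually rated against controls on a 0 (no effect) to 10 (complete control) scale.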

[14] = system: duck salad (Heteranthera limosa); assay: Test B flood test
In short: as §2

rice (Oryza sativa) = assay: Test B flood test
In short: as §2

[15] = system: smallflower flatsedge (Cyperus difformis); assay: Test B flood test
In short: as §2

[16] = Rate 250 g/ha, Postemergence (so in the source)
[17] = Rate 62 g/ha, Postemergence (flood test)
[18] = Rate 125 g/ha, Postemergence, flood test
[19] = Rate 250 g/ha, Postemergence (flood test species)
[20] = Rate 125 g/ha, Postemergence section (flood test species)

Cc1cnc(-c2ccc(F)cc2F)nc1Cc1cccc(C#N)c1 [Compound 34]
Plant response rating, Bedstraw ([1]; Rate 62 g/ha, Postemergence): 2
Bedstraw plant response rating ([1]; Rate 62 g/ha): 0
Plant response rating, Bedstraw ([1]; Rate 125 g/ha, Postemergence): 3
Bedstraw plant response rating ([1]; Rate 125 g/ha): 0
Plant response rating, Bedstraw ([1]; Rate 250 g/ha, Postemergence): 7
Plant response rating, Bedstraw [1, 16]: 0
Plant response rating, Blackgrass ([2]; Rate 62 g/ha, Postemergence): 0
Blackgrass plant response rating ([2]; Rate 62 g/ha): 0
Plant response rating, Blackgrass ([2]; Rate 125 g/ha, Postemergence): 1
Blackgrass plant response rating ([2]; Rate 125 g/ha): 0
Plant response rating, Blackgrass ([2]; Rate 250 g/ha, Postemergence): 1
Plant response rating, Blackgrass [2, 16]: 0
Plant response rating, B. signalgrass ([3]; Rate 62 g/ha, Postemergence): 1
B. signalgrass plant response rating ([3]; Rate 62 g/ha): 0
Plant response rating, B. signalgrass ([3]; Rate 125 g/ha, Postemergence): 1
B. signalgrass plant response rating ([3]; Rate 125 g/ha): 0
Plant response rating, B. signalgrass ([3]; Rate 250 g/ha, Postemergence): 1
Plant response rating, B. signalgrass ([3]; Rate 250 g/ha, Postemergence as printed in head r139 (second section for compounds 26-50)): 1
Plant response rating, Cocklebur ([4]; Rate 62 g/ha, Postemergence): 2
Cocklebur plant response rating ([4]; Rate 62 g/ha): 0
Plant response rating, Cocklebur ([4]; Rate 125 g/ha, Postemergence): 2
Cocklebur plant response rating ([4]; Rate 125 g/ha): 0
Plant response rating, Cocklebur ([4]; Rate 250 g/ha, Postemergence): 8
Plant response rating, Cocklebur [4, 16]: 0
Plant response rating, Corn (corn (Zea mays); Rate 62 g/ha, Postemergence): 1
Corn plant response rating (corn (Zea mays); Rate 62 g/ha): 0
Plant response rating, Corn (corn (Zea mays); Rate 125 g/ha, Postemergence): 1
Corn plant response rating (corn (Zea mays); Rate 125 g/ha): 0
Plant response rating, Corn (corn (Zea mays); Rate 250 g/ha, Postemergence): 1
Plant response rating, Corn (corn (Zea mays); [16]): 0
Plant response rating, Crabgrass ([5]; Rate 62 g/ha, Postemergence): 0
Crabgrass plant response rating ([5]; Rate 62 g/ha): 0
Plant response rating, Crabgrass ([5]; Rate 125 g/ha, Postemergence): 1
Crabgrass plant response rating ([5]; Rate 125 g/ha): 0
Plant response rating, Crabgrass ([5]; Rate 250 g/ha, Postemergence): 1
Plant response rating, Crabgrass [5, 16]: 1
Plant response rating, Giant foxtail ([6]; Rate 62 g/ha, Postemergence): 0
Giant foxtail plant response rating ([6]; Rate 62 g/ha, Preemergence): 0
Giant foxtail plant response rating ([6]; Rate 125 g/ha, Postemergence): 1
Giant foxtail plant response rating ([6]; Rate 125 g/ha, Preemergence): 0
Plant response rating, Giant foxtail ([6]; Rate 250 g/ha, Postemergence): 1
Plant response rating, Giant foxtail [6, 16]: 1
Plant response rating, Morningglory ([7]; Rate 62 g/ha, Postemergence): 1
Morningglory plant response rating ([7]; Rate 62 g/ha, Preemergence): 0
Morningglory plant response rating ([7]; Rate 125 g/ha, Postemergence): 1
Morningglory plant response rating ([7]; Rate 125 g/ha, Preemergence): 0
Plant response rating, Morningglory ([7]; Rate 250 g/ha, Postemergence): 2
Plant response rating, Morningglory [7, 16]: 0
Plant response rating, Redroot pigweed ([8]; Rate 62 g/ha, Postemergence): 1
Redroot pigweed plant response rating ([8]; Rate 62 g/ha, Preemergence): 0
Redroot pigweed plant response rating ([8]; Rate 125 g/ha, Postemergence): 3
Redroot pigweed plant response rating ([8]; Rate 125 g/ha, Preemergence): 0
Plant response rating, Redroot pigweed ([8]; Rate 250 g/ha, Postemergence): 6
Plant response rating, Redroot pigweed [8, 16]: 2
Plant response rating, Nutsedge ([9]; Rate 62 g/ha, Postemergence): 0
Nutsedge plant response rating ([9]; Rate 62 g/ha, Preemergence): 0
Nutsedge plant response rating ([9]; Rate 125 g/ha, Postemergence): 0
Nutsedge plant response rating ([9]; Rate 125 g/ha, Preemergence): 0
Plant response rating, Nutsedge ([9]; Rate 250 g/ha, Postemergence): 0
Plant response rating, Nutsedge [9, 16]: 0
Plant response rating, Rape (rape (Brassica napus); Rate 62 g/ha, Postemergence): 2
Rape plant response rating (rape (Brassica napus); Rate 62 g/ha, Preemergence): 0
Rape plant response rating (rape (Brassica napus); Rate 125 g/ha, Postemergence): 3
Rape plant response rating (rape (Brassica napus); Rate 125 g/ha, Preemergence): 0
Plant response rating, Rape (rape (Brassica napus); Rate 250 g/ha, Postemergence): 3
Plant response rating, Rape (rape (Brassica napus); [16]): 0
Plant response rating, Soybean (soybean (Glycine max); Rate 62 g/ha, Postemergence): 1
Soybean plant response rating (soybean (Glycine max); Rate 62 g/ha, Preemergence): 0
Soybean plant response rating (soybean (Glycine max); Rate 125 g/ha, Postemergence): 2
Plant response rating, Soybean (soybean (Glycine max); Rate 125 g/ha, Preemergence): 0
Plant response rating, Soybean (soybean (Glycine max); Rate 250 g/ha, Postemergence): 2
Plant response rating, Soybean (soybean (Glycine max); [16]): 0
Plant response rating, Sugarbeets ([10]; Rate 62 g/ha, Postemergence): 8
Sugarbeets plant response rating ([10]; Rate 62 g/ha, Preemergence): 0
Sugarbeets plant response rating ([10]; Rate 125 g/ha, Postemergence): 8
Plant response rating, Sugarbeets ([10]; Rate 125 g/ha, Preemergence): 0
Plant response rating, Sugarbeets ([10]; Rate 250 g/ha, Postemergence): 9
Plant response rating, Sugarbeets [10, 16]: 0
Plant response rating, Velvetleaf ([11]; Rate 62 g/ha, Postemergence): 1
Velvetleaf plant response rating ([11]; Rate 62 g/ha, Preemergence): 0
Velvetleaf plant response rating ([11]; Rate 125 g/ha, Postemergence): 1
Plant response rating, Velvetleaf ([11]; Rate 125 g/ha, Preemergence): 0
Plant response rating, Velvetleaf ([11]; Rate 250 g/ha, Postemergence): 1
Plant response rating, Velvetleaf [11, 16]: 0
Wheat plant response rating ([12]; Rate 62 g/ha, Postemergence): 0
Wheat plant response rating ([12]; Rate 62 g/ha, Preemergence): 0
Wheat plant response rating ([12]; Rate 125 g/ha, Postemergence): 1
Plant response rating, Wheat ([12]; Rate 125 g/ha, Preemergence): 0
Plant response rating, Wheat ([12]; Rate 250 g/ha, Postemergence): 1
Plant response rating, Wheat [12, 16]: 0
Wild oats plant response rating (wild oat (Avena fatua); Rate 62 g/ha, Postemergence): 0
Wild oats plant response rating (wild oat (Avena fatua); Rate 62 g/ha, Preemergence): 0
Wild oats plant response rating (wild oat (Avena fatua); Rate 125 g/ha, Postemergence): 1
Plant response rating, Wild oats (wild oat (Avena fatua); Rate 125 g/ha, Preemergence): 0
Plant response rating, Wild oats (wild oat (Avena fatua); Rate 250 g/ha, Postemergence): 2
Plant response rating, Wild oats (wild oat (Avena fatua); [16]): 0
Plant response rating, Barnyardgrass [13, 17]: 0
Plant response rating, Barnyardgrass [13, 18]: 0
Plant response rating, Barnyardgrass [13, 19]: 1
Plant response rating, Ducksalad [14, 17]: 0
Plant response rating, Ducksalad [14, 18]: 0
Plant response rating, Ducksalad [14, 19]: 0
Plant response rating, Rice (rice (Oryza sativa); [17]): 1
Rice plant response rating (rice (Oryza sativa); [20]): 1
Plant response rating, Rice (rice (Oryza sativa); [19]): 1
Plant response rating, S. Flatsedge [15, 17]: 2
S. Flatsedge plant response rating [15, 20]: 2
Plant response rating, S. Flatsedge [15, 19]: 3

Reference: patent US6525001B1, “Substituted pyrimidine and pyridine herbicides” (Mid-American Commercialization Corporation, priority 1997, dated 2003)
